target: MTH1 (Homo sapiens, UniProt P36639); assay: MTH1 enzymatic assay and IC50 value determination (malachite green); assay type: biochemical; details: MTH1 4.8 nM, dGTP 100 μM, 15 minutes at 22° C.; group: between 2 μM and 10 μM
Experimental: MTH1 Enzymatic Assay and IC50 Value Determination
MTH1 catalyzes the hydrolysis of dGTP to dGMP and PPi. By coupling the reaction to pyrophosphatase added in excess PPi is converted to Pi that can be detected by using the malachite green assay reagent. Briefly, for IC50 value determination the compound to be analyzed is diluted in assay buffer in a 1:3 dilution series generating 12 different compound concentrations giving a final DMSO concentration of 1% in the assay well. MTH1 diluted in assay buffer (100 mM Tris-acetate, 40 mM NaCl, 10 mM magnesium acetate, 1 mM DTT and 0.005% Tween 20) fortified with E. coli pyrophosphatase (0.8 U/ml) is added to a final concentration of 4.8 nM. dGTP diluted in assay buffer is added to a final concentration of 100 μM. The reaction mixture is incubated with shaking for 15 minutes at 22° C. To 100 μl reaction mixture is 25 μl Malachite green assay regent (0.095% Malachite green in 17% H2SO4, 1.5% Ammonium molybdate, 0.17% Tween 20) added followed by incubation with shaking for 15 minutes at 22° C.
The absorbance of the assay plate is read at 630 nm using an EnVision Multilabel plate reader. The IC50 value is determined by fitting a dose response curve to the data points using nonlinear regression analysis and the equation Y=Bottom+(Top−Bottom)/(1+10^((Log IC50−X)*HillSlope)), where Y is the read absorbance at 630 nm and X is log [compound].

**Q.** Which IC50 does the source give for Cc1cccc(-c2cc(NCCN3CCCCC3)nc(N)n2)c1C [Example 112, 6-(2,3-dimethylphenyl)-4-N-[2-(piperidin-1-yl)ethyl]pyrimidine-2,4-diamine] here?
**A.** 2000 to 10000 nM

**Q.** With Cc1ccc(S(=O)(=O)n2cc(-c3cc(NC(C)(C)C)nc(N)n3)c3ccccc32)cc1 [Example 161, 4-N-tert-butyl-6-[1-(4-methylbenzenesulfonyl)-1H-indol-3-yl]pyrimidine-2,4-diamine] as the molecule, how does the IC50 read?
**A.** 2000 to 10000 nM

**Q.** Which IC50 does the source give for Cc1cccc(-c2cc(N[C@H](C)C3CC3)nc(N)n2)c1C [Example 166, 4-N-[(1R)-1-cyclopropylethyl]-6-(2,3-dimethylphenyl)pyrimidine-2,4-diamine] here?
**A.** 2000 to 10000 nM

**Q.** How did the IC50 turn out when Cc1ccc(S(=O)(=O)n2cc(-c3cc(N[C@H](C)C4CC4)nc(N)n3)c3ccccc32)cc1 [Example 167, 4-N-[(1R)-1-cyclopropylethyl]-6-[1-(4-methylbenzenesulfonyl)-1H-indol-3-yl]pyrimidine-2,4-diamine] was run?
**A.** 2000 to 10000 nM

**Q.** With C[C@@H](Nc1cc(-c2cccc(Cl)c2Cl)nc(N)n1)C1CC1 [Example 179, 4-N-[(1R)-1-cyclopropylethyl]-6-(2,3-dichlorophenyl)pyrimidine-2,4-diamine] as the molecule, how does the IC50 read?
**A.** 2000 to 10000 nM

**Q.** With CC(C)(C)CNc1cc(-c2cccc(Cl)c2Cl)nc(N)n1 [Example 180, 6-(2,3-dichlorophenyl)-4-N-(2,2-dimethylpropyl)pyrimidine-2,4-diamine] as the molecule, how does the IC50 read?
**A.** 2000 to 10000 nM

**Q.** With Cc1cccc(-c2cc(NCC(C)(C)C)nc(N)n2)c1C [Example 181, 6-(2,3-dimethylphenyl)-4-N-(2,2-dimethylpropyl)pyrimidine-2,4-diamine] as the molecule, how does the IC50 read?
**A.** 2000 to 10000 nM

**Q.** Which IC50 does the source give for Cc1ccc(S(=O)(=O)n2cc(-c3cc(NCC(C)(C)C)nc(N)n3)c3ccccc32)cc1 [Example 182, 4-N-(2,2-dimethylpropyl)-6-[1-(4-methylbenzenesulfonyl)-1H-indol-3-yl]pyrimidine-2,4-diamine] here?
**A.** 2000 to 10000 nM

same assay, conditions: MTH1 4.8 nM, dGTP 100 μM, 15 minutes at 22° C.; group: less than 200 nM

**Q.** How did the IC50 turn out when C=Cc1ccc(-c2cc(NC)nc(N)n2)cc1 [Example 111, 6-(4-ethenylphenyl)-4-N-methylpyrimidine-2,4-diamine] was run?
**A.** < 200 nM

**Q.** For CNc1cc(-c2cccc(C(=O)Nc3ccc(C)cc3)c2)nc(N)n1 [Example 115, 3-[2-amino-6-(methylamino)pyrimidin-4-yl]-N-(4-methylphenyl)benzamide], which IC50 is on record?
**A.** < 200 nM

**Q.** With CNc1cc(-c2ccnc(OC)c2Cl)nc(N)n1 [Example 120, 6-(3-chloro-2-methoxypyridin-4-yl)-4-N-methylpyrimidine-2,4-diamine] as the molecule, how does the IC50 read?
**A.** < 200 nM

**Q.** COc1ccccc1CCNc1cc(-c2cccc(C)c2C)nc(N)n1 [Example 126, 6-(2,3-dimethylphenyl)-4-N-[2-(2-methoxyphenyl)ethyl]pyrimidine-2,4-diamine] was tested. Which IC50 did it give?
**A.** < 200 nM

**Q.** How did the IC50 turn out when Cc1ccc(CCNc2cc(-c3cccc(C)c3C)nc(N)n2)cc1 [Example 127, 6-(2,3-dimethylphenyl)-4-N-[2-(4-methylphenyl)ethyl]pyrimidine-2,4-diamine] was run?
**A.** < 200 nM

**Q.** For Cc1cccc(-c2cc(NCCc3ccccn3)nc(N)n2)c1C [Example 129, 6-(2,3-dimethylphenyl)-4-N-[2-(pyridin-2-yl)ethyl]pyrimidine-2,4-diamine], which IC50 is on record?
**A.** < 200 nM

**Q.** With Cc1cccc(-c2cc(NCCCc3ccccc3)nc(N)n2)c1C [Example 131, 6-(2,3-dimethylphenyl)-4-N-(3-phenylpropyl)pyrimidine-2,4-diamine] as the molecule, how does the IC50 read?
**A.** < 200 nM

**Q.** For Cc1cccc(-c2cc(NCCOc3ccccc3)nc(N)n2)c1C [Example 132, 6-(2,3-dimethylphenyl)-4-N-(2-phenoxyethyl)pyrimidine-2,4-diamine], which IC50 is on record?
**A.** < 200 nM

**Q.** With CCCCCNc1cc(-c2cccc(C)c2C)nc(N)n1 [Example 135, 6-(2,3-dimethylphenyl)-4-N-pentylpyrimidine-2,4-diamine] as the molecule, how does the IC50 read?
**A.** < 200 nM

**Q.** How did the IC50 turn out when CNc1cc(-c2ccc(O)nc2)nc(N)n1 [Example 141, 5-[2-amino-6-(methylamino)pyrimidin-4-yl]pyridin-2-ol] was run?
**A.** < 200 nM

**Q.** For CNc1cc(-c2ccc(CO)cc2)nc(N)n1 [Example 142, {4-[2-amino-6-(methylamino)pyrimidin-4-yl]phenyl}methanol], which IC50 is on record?
**A.** < 200 nM

**Q.** For CNc1cc(-c2cn(S(=O)(=O)c3ccc(Cl)cc3)c3ccccc23)nc(N)n1 [Example 144, 6-[1-(4-chlorobenzenesulfonyl)-1H-indol-3-yl]-4-N-methylpyrimidine-2,4-diamine], which IC50 is on record?
**A.** < 200 nM

**Q.** CNc1cc(-c2cc3cn[nH]c3cc2C)nc(N)n1 [Example 146, 4-N-methyl-6-(6-methyl-1H-indazol-5-yl)pyrimidine-2,4-diamine] was tested. Which IC50 did it give?
**A.** < 200 nM

**Q.** CNc1cc(-c2ccc3[nH]ccc3c2)nc(N)n1 [Example 148, 6-(1H-indol-5-yl)-4-N-methylpyrimidine-2,4-diamine] was tested. Which IC50 did it give?
**A.** < 200 nM

**Q.** Which IC50 does the source give for CNc1cc(-c2ccncc2Cl)nc(N)n1 [Example 149, 6-(3-chloropyridin-4-yl)-4-N-methylpyrimidine-2,4-diamine] here?
**A.** < 200 nM

**Q.** How did the IC50 turn out when Cc1cccc(-c2cc(NC3CCC3)nc(N)n2)c1C [Example 151, 4-N-cyclobutyl-6-(2,3-dimethylphenyl)pyrimidine-2,4-diamine] was run?
**A.** < 200 nM

**Q.** With CCNc1cc(-c2cn(S(=O)(=O)c3ccc(C)cc3)c3ccccc23)nc(N)n1 [Example 159, 4-N-ethyl-6-[1-(4-methylbenzenesulfonyl)-1H-indol-3-yl]pyrimidine-2,4-diamine] as the molecule, how does the IC50 read?
**A.** < 200 nM

**Q.** With Cc1cccc(-c2cc(NCC3CC3)nc(N)n2)c1C [Example 164, 4-N-(cyclopropylmethyl)-6-(2,3-dimethylphenyl)pyrimidine-2,4-diamine] as the molecule, how does the IC50 read?
**A.** < 200 nM

**Q.** Which IC50 does the source give for Cc1ccc(S(=O)(=O)n2cc(-c3cc(NCC4CC4)nc(N)n3)c3ccccc32)cc1 [Example 165, 4-N-(cyclopropylmethyl)-6-[1-(4-methylbenzenesulfonyl)-1H-indol-3-yl]pyrimidine-2,4-diamine] here?
**A.** < 200 nM

**Q.** For Cc1cccc(-c2cc(N[C@@H](C)C3CC3)nc(N)n2)c1C [Example 168, 4-N-[(1S)-1-cyclopropylethyl]-6-(2,3-dimethylphenyl)pyrimidine-2,4-diamine], which IC50 is on record?
**A.** < 200 nM

**Q.** How did the IC50 turn out when CNc1cc(-c2cc(C)ccc2Cl)nc(N)n1 [Example 171, 6-(2-chloro-5-methylphenyl)-4-N-methylpyrimidine-2,4-diamine] was run?
**A.** < 200 nM

**Q.** CNc1cc(-c2ccc(C(C)(C)O)cc2)nc(N)n1 [Example 173, 2-{4-[2-amino-6-(methylamino)pyrimidin-4-yl]phenyl}propan-2-ol] was tested. Which IC50 did it give?
**A.** < 200 nM

**Q.** How did the IC50 turn out when CNc1cc(-c2cccc3[nH]ccc23)nc(N)n1 [Example 174, 6-(1H-indol-4-yl)-4-N-methylpyrimidine-2,4-diamine] was run?
**A.** < 200 nM

**Q.** For Nc1nc(NC2CCCCC2)cc(-c2cccc(Cl)c2Cl)n1 [Example 175, 4-N-cyclohexyl-6-(2,3-dichlorophenyl)pyrimidine-2,4-diamine], which IC50 is on record?
**A.** < 200 nM

**Q.** With CNc1cc(-c2cc(Cl)c(OC)cc2Cl)nc(N)n1 [Example 192, 6-(2,5-dichloro-4-methoxyphenyl)-4-N-methylpyrimidine-2,4-diamine] as the molecule, how does the IC50 read?
**A.** < 200 nM

**Q.** Which IC50 does the source give for CNc1cc(-c2cc(C(C)(C)C)ccc2OC)nc(N)n1 [Example 197, 6-(5-tert-butyl-2-methoxyphenyl)-4-N-methylpyrimidine-2,4-diamine] here?
**A.** < 200 nM

**Q.** How did the IC50 turn out when CNc1cc(-c2cc(C(C)C)ccc2OC)nc(N)n1 [Example 198, 6-[2-methoxy-5-(propan-2-yl)phenyl]-4-N-methylpyrimidine-2,4-diamine] was run?
**A.** < 200 nM

**Q.** For CNc1cc(-c2cc(Cl)ccc2OC)nc(N)n1 [Example 201, 6-(5-chloro-2-methoxyphenyl)-4-N-methylpyrimidine-2,4-diamine], which IC50 is on record?
**A.** < 200 nM

**Q.** How did the IC50 turn out when CNc1cc(-c2cc(F)ccc2C)nc(N)n1 [Example 202, 6-(5-fluoro-2-methylphenyl)-4-N-methylpyrimidine-2,4-diamine] was run?
**A.** < 200 nM

**Q.** With CNc1cc(-c2cc(OC)ccc2OC)nc(N)n1 [Example 203, 6-(2,5-dimethoxyphenyl)-4-N-methylpyrimidine-2,4-diamine] as the molecule, how does the IC50 read?
**A.** < 200 nM

**Q.** With CNc1cc(-c2cc(F)ccc2C(F)(F)F)nc(N)n1 [Example 208, 6-[5-fluoro-2-(trifluoromethyl)phenyl]-4-N-methylpyrimidine-2,4-diamine] as the molecule, how does the IC50 read?
**A.** < 200 nM

**Q.** CNc1cc(-c2cc(Cl)ccc2Cl)nc(N)n1 [Example 209, 6-(2,5-dichlorophenyl)-4-N-methylpyrimidine-2,4-diamine] was tested. Which IC50 did it give?
**A.** < 200 nM

**Q.** For CNc1cc(-c2cc(Cl)ccc2F)nc(N)n1 [Example 210, 6-(5-chloro-2-fluorophenyl)-4-N-methylpyrimidine-2,4-diamine], which IC50 is on record?
**A.** < 200 nM

**Q.** How did the IC50 turn out when CNc1cc(-c2cc(C#N)ccc2C)nc(N)n1 [Example 211, 3-[2-amino-6-(methylamino)pyrimidin-4-yl]-4-methylbenzonitrile] was run?
**A.** < 200 nM

**Q.** With CNc1cc(-c2cc(F)c(C)cc2Cl)nc(N)n1 [Example 213, 6-(2-chloro-5-fluoro-4-methylphenyl)-4-N-methylpyrimidine-2,4-diamine] as the molecule, how does the IC50 read?
**A.** < 200 nM

**Q.** Which IC50 does the source give for CNc1cc(-c2cc(C)c(F)cc2Cl)nc(N)n1 [Example 215, 6-(2-chloro-4-fluoro-5-methylphenyl)-4-N-methylpyrimidine-2,4-diamine] here?
**A.** < 200 nM

— US10174029B2, “Pyrimidine-2,4-diamine derivatives for treatment of cancer” (THOMAS HELLEDAYS STIFTELSE FOR MEDICINSK FORSKNING, priority 2012, dated 2019)
